Patent publication US20060160894A1, “Benzamides as ppar modulators” (LABORATORIOS S.A.L.V.A.T.,S.A., priority 2003, published 2006)

Tests used:
GST-hPPARγ2 = target: T1, GST-hPPARγ2 (Homo sapiens, UniProt P37231); assay: Assay of binding to the PPARγ2 ([3H]BRL-49853 displacement); conditions: Table 19; GST-hPPARγ2, [3H]BRL-49853 100 nM; read-out: Affinity PPARγ(1)
T1 construct: the complete cDNA of the […] human PPARs were cloned into pGEX4T2; made in house; host or cells: Escherichia coli BL21 (DE3)
T1 sequence (P37231 1-505): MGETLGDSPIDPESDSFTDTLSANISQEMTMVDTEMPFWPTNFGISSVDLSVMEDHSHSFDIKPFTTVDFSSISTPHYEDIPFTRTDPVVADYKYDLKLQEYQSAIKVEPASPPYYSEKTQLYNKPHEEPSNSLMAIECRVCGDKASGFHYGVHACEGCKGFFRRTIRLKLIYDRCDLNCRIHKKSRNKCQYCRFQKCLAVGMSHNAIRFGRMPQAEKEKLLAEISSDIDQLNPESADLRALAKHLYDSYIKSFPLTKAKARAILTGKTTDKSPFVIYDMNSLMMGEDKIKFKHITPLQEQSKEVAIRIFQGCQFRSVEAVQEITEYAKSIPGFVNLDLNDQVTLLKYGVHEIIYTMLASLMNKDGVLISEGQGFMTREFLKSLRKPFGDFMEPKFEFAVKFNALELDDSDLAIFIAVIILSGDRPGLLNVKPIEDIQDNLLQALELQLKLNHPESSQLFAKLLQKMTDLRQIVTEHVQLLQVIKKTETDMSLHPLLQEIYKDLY
Procedure: Assay of Binding to the PPARγ2
The cDNA encoding for the open reading frame of the hPPARγ2 is amplified by PCR (polymerase chain reaction) and inserted in the plasmid pGEX-4T-2.
The reaction mixture was transferred to a Multiscreen Durapore (Millipore) microplate containing glutathione-Sepharose 4B in every well. The reaction mixture was left to incubate with the resin during 10 min, and then centrifuged at 735 g during 2 min. To dissociate the receptor bound to the resin, reduced glutathione 10 mM is added and incubated during 10 min. The receptor was eluted by centrifugation. Then, 800 μL of scintillation liquid were added to the elution and the contained radioactivity was quantified by liquid scintillation spectroscopy (Microbeta Wallac, Perkin Elmer).

PPARγ LBD = target: T2, PPARγ LBD (Homo sapiens, UniProt P37231); assay: LBD-hPPARs transactivation assay (GAL4-LBD luciferase reporter in COS-7 cells); type: cell-based; conditions: 48 h
T2 construct: expressed in transfected cells; host or cells: COS-7
T2 sequence (P37231 238-503 limits assumed): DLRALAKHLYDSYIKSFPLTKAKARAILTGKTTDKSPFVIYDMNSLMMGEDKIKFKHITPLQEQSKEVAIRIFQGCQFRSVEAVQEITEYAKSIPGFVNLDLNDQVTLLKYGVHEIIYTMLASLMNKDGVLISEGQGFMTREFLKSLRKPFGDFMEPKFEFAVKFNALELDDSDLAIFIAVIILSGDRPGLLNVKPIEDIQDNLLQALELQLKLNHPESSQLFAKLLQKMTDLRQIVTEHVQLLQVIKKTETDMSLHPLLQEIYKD
Excerpt: LBD-hPPARs Transactivation Assay
COS-7 cells were cultivated in 24-well plates and transfected with the pFACMV plasmids that encode the chimeric proteins containing the GAL4 DNA binding domain fused to the PPARγ LBD. The reporter plasmid for the foregoing constructions was pFR-Luc, which contains five repetitions of the GAL4-response element in front of a promoter that controls the transcription of the luciferase gene. Lipofectamine was used as a transfection agent.
The plasmids of the chimeric receptors and the reporter gene were inserted in the cells by transitory transfection in COS-7 cells in culture.

| SMILES | Ki (GST-hPPARγ2) | Functional activity PPARγ (PPARγ LBD) |
| --- | --- | --- |
| COC(=O)[C@H](Cc1ccc(OCc2ccccc2)cc1)NC(=O)c1ccc(OCCOc2nc3ccccc3nc2C)cc1 [Example 95, (2S)-3-(4-Benzyloxyphenyl)-2-{4-[2-(3-methylquinoxalin-2-yloxy)ethoxy]benzoylamino}propionic acid methyl ester] | < 1000 nM | Agonist |
| Cc1nc2ccccc2nc1OCCOc1ccc(C(=O)N[C@@H](Cc2ccc(F)cc2)C(=O)O)cc1 [Example 192, (2S)-3-(4-Fluorophenyl)-2-{4-[2-(3-methylquinoxalin-2-yloxy)ethoxy]benzoylamino}propionic acid] | > 3000 nM | Partial agonist |
| COC(=O)[C@H](Cc1ccc(OCc2ccccc2)cc1)NC(=O)c1ccc(OCc2cccc(Cl)c2)cc1 [Example 21, (2S)-3-(4-Benzyloxyphenyl)-2-[4-(3-chlorobenzyloxy)benzoylamino]propionic acid methyl ester] | < 1000 nM | Partial agonist |
| O=C(N[C@@H](Cc1ccc(OCc2ccccc2)cc1)C(=O)O)c1cccc(OCc2ccc(OCc3ccccc3)cc2)c1 [Example 185, (2S)-2-[3-(4-Benzyloxybenzyloxy)benzoylamino]-3-(4-benzyloxyphenyl)propionic acid] | < 1000 nM | Partial agonist |
| O=C(N[C@@H](Cc1ccc(OCc2ccccc2)cc1)C(=O)O)c1ccc(OCc2ccc(OCc3ccccc3)cc2)cc1 [Example 183, (2S)-2-[4-(4-Benzyloxybenzyloxy)benzoylamino]-3-(4-benzyloxyphenyl)propionic acid] | < 1000 nM | Partial agonist |
| O=C(N[C@@H](Cc1ccc(OCc2ccccc2)cc1)C(=O)O)c1ccc(OCc2ccccc2)cc1 [Example 129, (2S)-2-(4-Benzyloxybenzoylamino)-3-(4-benzyloxyphenyl)propionic acid] | < 1000 nM | Partial agonist |
| O=C(NC(Cc1cccc(Oc2ccccc2)c1)C(=O)O)c1ccc(OCCN(Cc2ccccc2)Cc2ccccc2)cc1 (centres unmarked) [Example 141, 2-[4-(2-Dibenzylaminoethoxy)benzoylamino]-3-(3-phenoxyphenyl)propionic acid] | 1000 to 3000 nM | Antagonist |
| O=C(O)CCN(Cc1cccc(OCc2ccccc2)c1)C(=O)c1cccc(OCCN(Cc2ccccc2)Cc2ccccc2)c1 [Example 163, 3-{(3-Benzyloxybenzyl)-[3-(2-dibenzylaminoethoxy)benzoyl]amino}propionic acid] | < 1000 nM | Antagonist |
| O=C(N[C@@H](Cc1ccc(OCc2ccccc2)cc1)C(=O)O)c1cccc(OCc2cccc(OCc3ccccc3)c2)c1 [Example 145, (2S)-2-[3-(3-Benzyloxybenzyloxy)benzoylamino]-3-(4-benzyloxyphenyl)propionic acid] | 1000 to 3000 nM | Antagonist |
| COC(=O)[C@H](Cc1ccc(OCc2ccccc2)cc1)NC(=O)c1ccc(OCc2ccccc2Cl)cc1 [Example 20, (2S)-3-(4-Benzyloxyphenyl)-2-[4-(2-chlorobenzyloxy)benzoylamino]propionic acid methyl ester] | < 1000 nM | Partial agonist |
| CCCCOc1ccc(COc2ccc(C(=O)N[C@@H](CC3CCCCC3)C(=O)O)cc2)cc1 [Example 237, (2S)-2-[4-(4-Butoxybenzyloxy)benzoylamino]-3-cyclohexylpropionic acid] | < 1000 nM | Partial agonist |
| O=C(N[C@@H](Cc1ccc(OCc2ccccc2)cc1)C(=O)O)c1cccc(OCc2ccc(-c3ccccc3)cc2)c1 [Example 187, (2S)-3-(4-Benzyloxyphenyl)-2-[3-(biphenyl-4-ylmethoxy)benzoylamino]propionic acid] | < 1000 nM | Agonist |
| Cc1ccccc1COc1ccc(C(=O)N[C@@H](Cc2ccc(OCc3ccccc3)cc2)C(=O)O)cc1 [Example 243, (2S)-3-(4-Benzyloxyphenyl)-2-[4-(2-methylbenzyloxy)benzoylamino]propionic acid] | < 1000 nM | Antagonist |
| O=C(O)CCN(Cc1ccc(OCc2ccccc2)cc1)C(=O)c1cccc(OCCN(Cc2ccccc2)Cc2ccccc2)c1 [Example 164, 3-{(4-Benzyloxybenzyl)-[3-(2-dibenzylaminoethoxy)benzoyl]amino}propionic acid] | 1000 to 3000 nM | Antagonist |
| COC(=O)[C@H](Cc1ccc(OCc2ccccc2)cc1)NC(=O)c1ccc(OCCOc2cccc3cccnc23)cc1 [Example 98, (2S)-3-(4-Benzyloxyphenyl)-2-{4-[2-(quinolin-8-yloxy)ethoxy]-benzoylamino}propionic acid methyl ester] | < 1000 nM | Antagonist |
| O=C(NC(Cc1ccc(-c2ccccc2)cc1)C(=O)O)c1ccc(OCCN(Cc2ccccc2)Cc2ccccc2)cc1 (centres unmarked) [Example 136, 3-Biphenyl-4-yl-2-[4-(2-dibenzylaminoethoxy)benzoylamino]propionic acid] | 1000 to 3000 nM | Antagonist |
| O=C(N[C@H](Cc1c[nH]c2ccccc12)C(=O)O)c1ccc(OCCN(Cc2ccccc2)Cc2ccccc2)cc1 [Example 131, (2R)-2-[4-(2-Dibenzylaminoethoxy)benzoylamino]-3-(1H-indol-3-yl)propionic acid] | 1000 to 3000 nM | Partial agonist |
| Cc1nc2ccccc2nc1OCCOc1cccc(C(=O)N[C@@H](Cc2ccc(OCc3ccccc3)cc2)C(=O)O)c1 [Example 180, (2S)-3-(4-Benzyloxyphenyl)-2-{3-[2-(3-methylquinoxalin-2-yloxy)ethoxy]benzoylamino}propionic acid] | < 1000 nM | Partial agonist |
| O=C(O)CCN(Cc1ccc(OCc2ccccc2)cc1)C(=O)c1ccc(OCc2cccc(OCc3ccccc3)c2)cc1 [Example 176, 3-{(4-Benzyloxybenzyl)-[4-(3-benzyloxybenzyloxy)benzoyl]amino}propionic acid] | < 1000 nM | Antagonist |
